For 21 compounds, IC50 results are on record in patent US11028075B2, “Therapeutic compounds and methods of use thereof” (GENENTECH, INC., priority 2018, dated 2021).

Experiment [1] deals with T1, hNav1.7 (Homo sapiens (Human), UniProt Q15858). Description: Tritiated compound binding to membranes from cells heterologously expressing hNav1.7 and the β1 subunit (Nav1.7 LBA). The settings on record: competitive binding vs [3H]compound, membranes with hNav1.7 and β1 subunit; read-out: Nav1.7 LBA EVO IC50. In short, it runs like this:
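Membranes from cells expressing hNav1.7 with β1 were incubated at room temperature with a tritiated competitive Nav1.7 inhibitor plus test compound in 100 mM NaCl, 20 mM Tris pH 7.4, 0.01% BSA; nonspecific binding was set with 1 μM unlabeled compound. Incubation was 18 h with […] radioligand, or 3 h with […]. Bound ligand was filtered and counted, and IC50 came from a 4-parameter fit.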
Target sequence in this assay (Q15858 whole entry, looked up): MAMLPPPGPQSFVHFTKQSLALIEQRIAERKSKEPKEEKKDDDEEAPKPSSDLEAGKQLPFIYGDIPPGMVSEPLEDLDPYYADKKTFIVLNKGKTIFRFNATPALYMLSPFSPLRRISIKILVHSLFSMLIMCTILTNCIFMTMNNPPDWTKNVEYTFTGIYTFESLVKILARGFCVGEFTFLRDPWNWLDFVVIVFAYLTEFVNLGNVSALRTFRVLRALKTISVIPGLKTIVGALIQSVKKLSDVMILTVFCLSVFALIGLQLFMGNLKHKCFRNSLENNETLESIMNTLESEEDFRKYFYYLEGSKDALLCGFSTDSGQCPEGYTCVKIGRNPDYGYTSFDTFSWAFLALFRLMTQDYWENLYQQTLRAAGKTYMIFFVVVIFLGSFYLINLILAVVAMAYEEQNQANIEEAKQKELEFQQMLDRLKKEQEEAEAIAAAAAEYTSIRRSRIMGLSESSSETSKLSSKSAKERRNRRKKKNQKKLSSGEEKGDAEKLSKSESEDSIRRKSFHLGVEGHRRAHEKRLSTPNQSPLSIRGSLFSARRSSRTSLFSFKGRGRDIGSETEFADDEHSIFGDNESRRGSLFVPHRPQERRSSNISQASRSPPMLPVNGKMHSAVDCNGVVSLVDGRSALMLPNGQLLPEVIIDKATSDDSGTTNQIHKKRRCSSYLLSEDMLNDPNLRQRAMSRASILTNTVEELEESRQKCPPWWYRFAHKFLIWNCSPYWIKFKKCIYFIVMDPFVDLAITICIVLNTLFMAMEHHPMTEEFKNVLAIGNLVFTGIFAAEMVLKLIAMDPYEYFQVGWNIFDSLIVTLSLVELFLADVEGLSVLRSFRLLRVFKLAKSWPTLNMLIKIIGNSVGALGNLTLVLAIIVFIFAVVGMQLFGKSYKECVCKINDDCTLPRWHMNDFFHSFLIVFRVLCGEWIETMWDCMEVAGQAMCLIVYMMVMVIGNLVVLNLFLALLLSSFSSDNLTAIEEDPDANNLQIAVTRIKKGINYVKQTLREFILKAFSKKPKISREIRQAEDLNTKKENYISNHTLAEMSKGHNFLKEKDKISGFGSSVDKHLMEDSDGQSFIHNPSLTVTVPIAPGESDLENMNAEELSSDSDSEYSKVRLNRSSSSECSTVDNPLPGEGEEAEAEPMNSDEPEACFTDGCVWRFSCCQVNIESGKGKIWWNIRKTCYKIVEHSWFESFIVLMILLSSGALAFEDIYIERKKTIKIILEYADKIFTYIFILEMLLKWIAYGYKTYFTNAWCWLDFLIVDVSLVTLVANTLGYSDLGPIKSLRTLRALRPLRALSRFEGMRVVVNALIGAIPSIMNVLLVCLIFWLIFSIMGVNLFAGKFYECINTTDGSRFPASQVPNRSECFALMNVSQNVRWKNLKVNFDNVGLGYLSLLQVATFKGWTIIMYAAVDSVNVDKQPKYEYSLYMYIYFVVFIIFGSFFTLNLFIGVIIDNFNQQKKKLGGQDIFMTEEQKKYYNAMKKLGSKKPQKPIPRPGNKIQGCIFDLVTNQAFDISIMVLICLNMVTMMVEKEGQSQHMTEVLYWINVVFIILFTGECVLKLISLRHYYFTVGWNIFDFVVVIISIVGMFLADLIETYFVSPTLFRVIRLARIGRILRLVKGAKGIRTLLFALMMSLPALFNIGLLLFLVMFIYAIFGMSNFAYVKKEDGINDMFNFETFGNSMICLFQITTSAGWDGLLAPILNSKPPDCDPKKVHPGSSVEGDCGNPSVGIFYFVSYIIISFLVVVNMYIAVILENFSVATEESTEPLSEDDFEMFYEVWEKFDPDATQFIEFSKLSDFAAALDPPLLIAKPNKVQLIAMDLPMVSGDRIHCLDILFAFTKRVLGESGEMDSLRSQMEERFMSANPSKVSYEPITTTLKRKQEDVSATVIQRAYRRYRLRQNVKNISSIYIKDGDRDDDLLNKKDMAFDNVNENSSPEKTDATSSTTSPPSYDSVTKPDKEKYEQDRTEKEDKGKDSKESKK
Target sequence in this assay (Q07699 whole entry partner, looked up): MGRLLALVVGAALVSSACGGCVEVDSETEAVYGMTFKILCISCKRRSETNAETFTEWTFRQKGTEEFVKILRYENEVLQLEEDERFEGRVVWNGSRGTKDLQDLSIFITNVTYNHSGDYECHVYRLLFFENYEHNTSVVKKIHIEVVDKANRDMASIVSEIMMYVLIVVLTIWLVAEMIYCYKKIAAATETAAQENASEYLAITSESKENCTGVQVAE

The target in experiment [2] is T1, hNav1.7. Briefly: Electrophysiological assay (EP), voltage clamp on Syncropatch 384PE, CHO cells stably expressing Nav1.7. The experiment is classed as cell-based. The settings on record: holding potential −50 mV, 7.5 min compound incubation, read-out: EP_SP hNav1.7 EVO IC50. In short, it runs like this: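 Whole-cell automated patch clamp was run on CHO cells stably expressing human Nav1.7 cDNA, with internal solution CsCl/EGTA pH 7.2, external solution 80 mM NaCl pH 7.4, and 0.1% Pluronic F-127. From a −50 mV holding potential: −10 mV for 10 ms, −150 mV for 20 ms, then −10 mV for 10 ms, where current was measured. Inhibition was taken after 7.5 min compound incubation, with TTX added for full block.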
Target sequence in this assay (Q15858 other isoform, or with tags, fused parts or gaps): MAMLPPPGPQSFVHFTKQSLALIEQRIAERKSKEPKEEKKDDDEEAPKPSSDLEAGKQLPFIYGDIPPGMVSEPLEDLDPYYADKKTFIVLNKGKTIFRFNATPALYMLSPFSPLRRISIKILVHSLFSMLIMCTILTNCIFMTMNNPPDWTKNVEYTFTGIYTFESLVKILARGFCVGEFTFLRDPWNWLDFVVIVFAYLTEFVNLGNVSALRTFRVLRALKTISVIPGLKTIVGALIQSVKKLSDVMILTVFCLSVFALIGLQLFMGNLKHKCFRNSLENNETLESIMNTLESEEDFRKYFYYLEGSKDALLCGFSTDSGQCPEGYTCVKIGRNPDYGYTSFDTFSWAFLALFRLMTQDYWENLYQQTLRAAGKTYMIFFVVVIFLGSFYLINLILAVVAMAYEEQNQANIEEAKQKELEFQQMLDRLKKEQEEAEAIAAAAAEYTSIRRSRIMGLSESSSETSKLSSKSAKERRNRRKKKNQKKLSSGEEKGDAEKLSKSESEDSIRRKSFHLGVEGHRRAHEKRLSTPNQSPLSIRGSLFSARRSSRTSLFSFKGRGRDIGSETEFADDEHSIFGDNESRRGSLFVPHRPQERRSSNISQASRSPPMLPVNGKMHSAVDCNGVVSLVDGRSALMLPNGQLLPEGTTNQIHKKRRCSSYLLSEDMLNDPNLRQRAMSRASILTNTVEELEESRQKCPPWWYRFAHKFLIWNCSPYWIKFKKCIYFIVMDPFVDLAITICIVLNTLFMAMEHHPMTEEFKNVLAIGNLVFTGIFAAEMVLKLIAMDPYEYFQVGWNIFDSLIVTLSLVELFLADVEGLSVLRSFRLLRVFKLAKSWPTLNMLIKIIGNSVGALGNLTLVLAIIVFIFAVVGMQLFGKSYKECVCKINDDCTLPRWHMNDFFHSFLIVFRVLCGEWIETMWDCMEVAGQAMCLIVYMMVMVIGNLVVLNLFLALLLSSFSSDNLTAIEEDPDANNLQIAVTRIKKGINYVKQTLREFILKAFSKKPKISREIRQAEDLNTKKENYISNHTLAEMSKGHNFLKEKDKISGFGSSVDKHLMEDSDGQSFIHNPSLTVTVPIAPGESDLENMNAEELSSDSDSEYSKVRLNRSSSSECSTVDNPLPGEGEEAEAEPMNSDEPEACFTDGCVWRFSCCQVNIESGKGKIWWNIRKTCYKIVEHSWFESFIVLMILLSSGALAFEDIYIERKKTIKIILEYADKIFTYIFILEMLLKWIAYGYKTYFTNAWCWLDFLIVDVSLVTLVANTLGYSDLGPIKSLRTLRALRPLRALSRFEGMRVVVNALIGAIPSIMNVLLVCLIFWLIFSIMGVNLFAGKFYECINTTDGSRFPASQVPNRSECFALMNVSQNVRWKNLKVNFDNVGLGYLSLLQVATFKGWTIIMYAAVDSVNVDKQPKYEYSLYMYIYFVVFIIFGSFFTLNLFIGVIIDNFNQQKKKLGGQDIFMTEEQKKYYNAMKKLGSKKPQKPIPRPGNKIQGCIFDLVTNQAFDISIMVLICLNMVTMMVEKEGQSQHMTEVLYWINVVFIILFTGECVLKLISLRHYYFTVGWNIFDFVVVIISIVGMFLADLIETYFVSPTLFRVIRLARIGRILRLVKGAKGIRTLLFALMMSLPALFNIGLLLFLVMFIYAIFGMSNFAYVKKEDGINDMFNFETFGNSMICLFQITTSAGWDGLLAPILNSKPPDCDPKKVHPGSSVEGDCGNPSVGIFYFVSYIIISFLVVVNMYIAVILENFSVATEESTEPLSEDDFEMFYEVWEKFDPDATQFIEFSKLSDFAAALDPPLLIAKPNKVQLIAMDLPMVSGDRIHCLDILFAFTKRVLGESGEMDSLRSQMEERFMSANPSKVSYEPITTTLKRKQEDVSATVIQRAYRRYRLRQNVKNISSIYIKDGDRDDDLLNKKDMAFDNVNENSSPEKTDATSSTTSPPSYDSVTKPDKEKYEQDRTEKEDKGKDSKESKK
On the technique in general: The patch-clamp technique gives a direct electrical read-out from membranes.

pIC50: −log10 of the molar value. Structures can show the parent of a compound that is named as a salt.

As a reminder, the pIC50 is the IC50 on a negative log10 scale, so that one unit is a factor of ten. Turning to `CC(C)[C@H](N)C(=O)N[C@H]1C[C@@H](c2cccc(C(F)(F)F)c2)CC[C@@H]1Nc1cc(F)c(S(=O)(=O)Nc2ccncn2)cc1Cl` [Example 30, (S)-2-Amino-N-((1S,2S,5S)-2-((2-chloro-5-fluoro-4-(N-(pyrimidin-4-yl)sulfamoyl)-phenyl)amino)-5-(3-(trifluoromethyl)phenyl)cyclohexyl)-3-methylbutanamide formate], the pIC50 on hNav1.7 [1] was 7.43; at hNav1.7 [2] it was 7.55.
Taken in the same sequence, the figures for `CC(C)[C@H](N)C(=O)N(C)[C@H]1C[C@@H](c2cccc(C(F)(F)F)c2)CC[C@@H]1Nc1cc(F)c(S(=O)(=O)Nc2ccncn2)cc1Cl` [Example 31, (S)-2-amino-N-((1S,2S,5S)-2-((2-chloro-5-fluoro-4-(N-(pyrimidin-4-yl)sulfamoyl)-phenyl)amino)-5-(3-(trifluoromethyl)phenyl)cyclohexyl)-N,3-dimethylbutanamide formate] were 8.56 and 9.34.
`CN(C)[C@H]1C[C@@H](c2cccc(C(C)(F)F)c2)CC[C@@H]1Nc1cc(F)c(S(=O)(=O)Nc2ccncn2)cc1Cl` [Example 32, 5-chloro-4-(((1S,2S,4S)-4-(3-(1,1-difluoroethyl)phenyl)-2-(dimethylamino)-cyclohexyl)-amino)-2-fluoro-N-(pyrimidin-4-yl)benzenesulfonamide]: the results for the pIC50 at hNav1.7 [1] and on hNav1.7 [2] were 8.69 and 8.80, respectively.
`CN1CC[C@H](C(=O)N(C)[C@H]2C[C@@H](c3cccc(C(F)(F)F)c3)CC[C@@H]2Nc2cc(F)c(S(=O)(=O)Nc3ccncn3)cc2Cl)C1` [Example 33, (S)—N-((1S,2S,5S)-2-((2-chloro-5-fluoro-4-(N-(pyrimidin-4-yl)sulfamoyl)phenyl)amino)-5-(3-(trifluoromethyl)phenyl)cyclohexyl)-N,1-dimethylpyrrolidine-3-carboxamide]: the pIC50 at hNav1.7 [1] was 8.61; at hNav1.7 [2], 9.20.
In the case of `CN1CC[C@@H](C(=O)N(C)[C@H]2C[C@@H](c3cccc(C(F)(F)F)c3)CC[C@@H]2Nc2cc(F)c(S(=O)(=O)Nc3ccncn3)cc2Cl)C1` [Example 34, (R)—N-((1S,2S,5S)-2-((2-Chloro-5-fluoro-4-(N-(pyrimidin-4-yl)sulfamoyl)phenyl)amino)-5-(3-(trifluoromethyl)phenyl)cyclohexyl)-N,1-dimethylpyrrolidine-3-carboxamide], the pIC50 on hNav1.7 [1] was 8.59; on hNav1.7 [2], 9.17.
Turning to `CN(C)[C@H]1C[C@@](O)(c2cccc(C(F)(F)F)c2)CC[C@@H]1Nc1cc(F)c(S(=O)(=O)Nc2ccncn2)cc1Cl` [Example 35, 5-chloro-4-(((1S,2S,4R)-2-(dimethylamino)-4-hydroxy-4-(3-(trifluoromethyl)phenyl)-cyclohexyl)amino)-2-fluoro-N-(pyrimidin-4-yl)benzenesulfonamide formate], the pIC50 on hNav1.7 [1] is 8.40; at hNav1.7 [2] it was 8.72.
As to `CN1CC(C(=O)N(C)[C@H]2C[C@@H](c3cccc(C(F)(F)F)c3)CC[C@@H]2Nc2cc(F)c(S(=O)(=O)Nc3ccncn3)cc2Cl)C1` [Example 39, N-((1S,2S,5S)-2-((2-Chloro-5-fluoro-4-(N-(pyrimidin-4-yl)sulfamoyl)phenyl)amino)-5-(3-(trifluoromethyl)phenyl)cyclohexyl)-N,1-dimethylazetidine-3-carboxamide], the pIC50 is 8.68 on hNav1.7 [1] and 9.08 on hNav1.7 [2].
Taken in the same sequence, the figures for `CN(C1CCC1)[C@H]1C[C@@H](c2cccc(C(F)(F)F)c2)CC[C@@H]1Nc1cc(F)c(S(=O)(=O)Nc2ccncn2)cc1F` [Example 40, 4-(((1S,2S,4S)-2-(cyclobutyl(methyl)amino)-4-(3-(trifluoromethyl)phenyl)cyclohexyl)amino)-2,5-difluoro-N-(pyrimidin-4-yl)benzenesulfonamide formate] were 8.10 and 9.04.
On the same counts, the results for `CN(CCO)[C@H]1C[C@@H](c2cccc(C(F)(F)F)c2)CC[C@@H]1Nc1cc(F)c(S(=O)(=O)Nc2ccncn2)cc1Cl` [Example 41, 5-chloro-2-fluoro-4-(((1S,2S,4S)-2-((2-hydroxyethyl)(methyl)amino)-4-(3-(trifluoromethyl)-phenyl)cyclohexyl)amino)-N-(pyrimidin-4-yl)benzenesulfonamide] are 9.21 and 9.27.
On the same counts, the results for `CN(C1CNC1)[C@H]1C[C@@H](c2cccc(C(F)(F)F)c2)CC[C@@H]1Nc1cc(F)c(S(=O)(=O)Nc2ccncn2)cc1Cl` [Example 42, 4-(((1S,2S,4S)-2-(azetidin-3-yl(methyl)amino)-4-(3-(trifluoromethyl)phenyl)cyclohexyl)-amino)-5-chloro-2-fluoro-N-(pyrimidin-4-yl)benzenesulfonamide] are 9.18 and 9.85.
Take `CN(C)[C@H]1C[C@@H](c2cccc(OC3CC3)c2)CC[C@@H]1Nc1cc(F)c(S(=O)(=O)Nc2ccncn2)cc1Cl` [Example 43]: the pIC50 is 8.15 at hNav1.7 [1] and 8.95 on hNav1.7 [2].
Turning to `CN(C)[C@H]1C[C@@H](c2cccc(C3COC3)c2)CC[C@@H]1Nc1cc(F)c(S(=O)(=O)Nc2ccncn2)cc1Cl` [Example 44, 5-chloro-4-(((1S,2S,4S)-2-(dimethylamino)-4-(3-(oxetan-3-yl)phenyl)cyclohexyl)amino)-2-fluoro-N-(pyrimidin-4-yl)benzenesulfonamide], the pIC50 at hNav1.7 [1] was 7.34; on hNav1.7 [2] it was 8.04.
For the compound `CN1CC(N(C)[C@H]2C[C@@H](c3cccc(C(F)(F)F)c3)CC[C@@H]2Nc2cc(F)c(S(=O)(=O)Nc3ccncn3)cc2Cl)C1` [Example 45, 5-chloro-2-fluoro-4-(((1S,2S,4S)-2-(methyl(1-methylazetidin-3-yl)amino)-4-(3-(trifluoromethyl)phenyl)cyclohexyl)amino)-N-(pyrimidin-4-yl)benzenesulfonamide], the pIC50 was 9.40 on hNav1.7 [1] and 9.62 on hNav1.7 [2].
`O=S(=O)(Nc1ccncn1)c1cc(O)c(N[C@H]2CC[C@H](c3cccc(C(F)(F)F)c3)C[C@@H]2N2CCCC2)cc1F` [Example 46, 2-Fluoro-5-hydroxy-N-(pyrimidin-4-yl)-4-(((1S,2S,4S)-2-(pyrrolidin-1-yl)-4-(3-(trifluoromethyl)-phenyl)cyclohexyl)amino)benzenesulfonamide formate]: the values for the pIC50 at hNav1.7 [1] and on hNav1.7 [2] were 7.61 and 8.72, respectively.
On the same counts, the results for `O=S(=O)(Nc1ccncn1)c1cc2c(cc1F)N([C@H]1CC[C@H](c3cccc(C(F)(F)F)c3)C[C@@H]1N1CCCC1)CCO2` [Example 47, 6-Fluoro-N-(pyrimidin-4-yl)-4-((1S,2S,4S)-2-(pyrrolidin-1-yl)-4-(3-(trifluoromethyl)phenyl)-cyclohexyl)-3,4-dihydro-2H-benzo[b][1,4]oxazine-7-sulfonamide] are 9.10 and 8.94.
On the same counts, the results for `CN(C)[C@H]1C[C@@H](c2cccc(C(F)(F)F)c2)CC[C@@H]1Oc1cc(F)c(S(=O)(=O)Nc2ccncn2)cc1F` [Example 48, 4-(((1S,2S,4S)-2-(dimethylamino)-4-(3-(trifluoromethyl)phenyl)cyclohexyl)oxy)-2,5-difluoro-N-(pyrimidin-4-yl)benzenesulfonamide formate] are 7.42 and 8.48.
As to `O=C1COc2cc(S(=O)(=O)Nc3ccncn3)c(F)cc2N1[C@H]1CC[C@H](c2cccc(C(F)(F)F)c2)C[C@@H]1N1CCCC1` [Example 49, 6-Fluoro-3-oxo-N-(pyrimidin-4-yl)-4-((1S,2S,4S)-2-(pyrrolidin-1-yl)-4-(3-(trifluoromethyl)-phenyl)cyclohexyl)-3,4-dihydro-2H-benzo[b][1,4]oxazine-7-sulfonamide], the pIC50 is 7.63 at hNav1.7 [1] and 8.56 on hNav1.7 [2].
On the same counts, the results for `O=S(=O)(Nc1ccncn1)c1cc(F)c(N[C@H]2CC[C@H](c3cc(C(F)(F)F)ccc3F)C[C@@H]2N2CCCC2)cc1F` [Example 50, 2,5-difluoro-4-(((1S,2S,4S)-4-(2-fluoro-5-(trifluoromethyl)phenyl)-2-(pyrrolidin-1-yl)cyclohexyl)amino)-N-(pyrimidin-4-yl)benzenesulfonamide] are 8.41 and 8.92.
For `CN(C)[C@H]1C[C@@H](c2cccc(C(F)(F)F)c2)CC[C@@H]1N(C)c1cc(F)c(S(=O)(=O)Nc2ccncn2)cc1Cl` [Example 51, 5-Chloro-4-(((1S,2S,4S)-2-(dimethylamino)-4-(3-(trifluoromethyl)phenyl)cyclohexyl)-(methyl)amino)-2-fluoro-N-(pyrimidin-4-yl)benzenesulfonamide formate], the negative logarithm of the IC50 (pIC50) on hNav1.7 [1] is 6.77; on hNav1.7 [2], 8.33.
Taken in the same sequence, the figures for `CN(C)[C@H]1C[C@@H](c2cccc(C(F)(F)F)c2)CC[C@@H]1N1CCCc2cc(S(=O)(=O)Nc3ccncn3)c(F)cc21` [Example 54, 1-((1S,2S,4S)-2-(Dimethylamino)-4-(3-(trifluoromethyl)phenyl)cyclohexyl)-7-fluoro-N-(pyrimidin-4-yl)-1,2,3,4-tetrahydroquinoline-6-sulfonamide] were 9.22 and 8.85.
Taken in the same sequence, the figures for `CN(C)[C@H]1C[C@@H](c2cccc(C(F)(F)F)c2)CC[C@@H]1N1C(=O)CCc2cc(S(=O)(=O)Nc3ccncn3)c(F)cc21` [Example 55, 1-((1S,2S,4S)-2-(Dimethylamino)-4-(3-(trifluoromethyl)phenyl)cyclohexyl)-7-fluoro-2-oxo-N-(pyrimidin-4-yl)-1,2,3,4-tetrahydroquinoline-6-sulfonamide] were 8.17 and 8.57.
